Legend:
Experiment in all cases: KAM-matrix competition in K562 lysate;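 as to 0.001 uM KAM: median log10 fold change of treatment over DMSO control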;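 as to 0.01 uM KAM: median log10 fold change of treatment over DMSO control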;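 as to 0.1 uM KAM: median log10 fold change of treatment over DMSO control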;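 as to 1 uM KAM: median log10 fold change of treatment over DMSO control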;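 as to 10 uM KAM: median log10 fold change of treatment over DMSO control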
Type in all cases: binding
TP53RK = target: T1, TP53RK (Homo sapiens, UniProt Q96S44);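 as to 0.001 uM KAM: median log10 fold change of treatment over DMSO control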;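 as to 0.01 uM KAM: median log10 fold change of treatment over DMSO control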;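 as to 0.1 uM KAM: median log10 fold change of treatment over DMSO control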;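 as to 1 uM KAM: median log10 fold change of treatment over DMSO control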;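 as to 10 uM KAM: median log10 fold change of treatment over DMSO control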
T1 construct: endogenous in cells; host or cells: K562
T1 sequence (Q96S44 1-253): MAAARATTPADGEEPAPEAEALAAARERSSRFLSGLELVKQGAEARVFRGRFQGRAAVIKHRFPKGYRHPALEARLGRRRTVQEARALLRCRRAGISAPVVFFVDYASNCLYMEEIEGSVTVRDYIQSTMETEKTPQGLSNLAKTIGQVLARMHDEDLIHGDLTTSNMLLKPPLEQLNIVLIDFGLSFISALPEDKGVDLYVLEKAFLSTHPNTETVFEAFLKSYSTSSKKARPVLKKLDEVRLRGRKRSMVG
Method: (§1) Supplement 12953_2017_125_MOESM1_ESM.zip/MS_Supp Info.xlsx, sheet "KAM" | column: 10 uM KAM; 1 uM KAM; 0.1 uM KAM; 0.01 uM KAM; 0.001 uM KAM; RB50

CDK10 = target: T2, CDK10 (Homo sapiens, UniProt Q15131)
T2 construct: endogenous in cells; host or cells: K562
Method: as §1

CSNK2A2 = target: T3, CSNK2A2 (Homo sapiens, UniProt P19784)
T3 construct: endogenous in cells; host or cells: K562
Method: as §1

SYK = target: T4, SYK (Homo sapiens, UniProt P43405)
T4 construct: K562 cell pellets were thawed on ice and resuspended in cold Lysis buffer; endogenous in cells; host or cells: K562
Method: as §1

TAOK2 = target: T5, TAOK2 (Homo sapiens, UniProt Q9UL54);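 as to 0.001 uM KAM: median log10 fold change of treatment over DMSO control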;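 as to 0.01 uM KAM: median log10 fold change of treatment over DMSO control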;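 as to 0.1 uM KAM: median log10 fold change of treatment over DMSO control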;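 as to 1 uM KAM: median log10 fold change of treatment over DMSO control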;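 as to 10 uM KAM: median log10 fold change of treatment over DMSO control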
T5 construct: endogenous in cells; host or cells: K562
T5 sequence (Q9UL54 1-1235): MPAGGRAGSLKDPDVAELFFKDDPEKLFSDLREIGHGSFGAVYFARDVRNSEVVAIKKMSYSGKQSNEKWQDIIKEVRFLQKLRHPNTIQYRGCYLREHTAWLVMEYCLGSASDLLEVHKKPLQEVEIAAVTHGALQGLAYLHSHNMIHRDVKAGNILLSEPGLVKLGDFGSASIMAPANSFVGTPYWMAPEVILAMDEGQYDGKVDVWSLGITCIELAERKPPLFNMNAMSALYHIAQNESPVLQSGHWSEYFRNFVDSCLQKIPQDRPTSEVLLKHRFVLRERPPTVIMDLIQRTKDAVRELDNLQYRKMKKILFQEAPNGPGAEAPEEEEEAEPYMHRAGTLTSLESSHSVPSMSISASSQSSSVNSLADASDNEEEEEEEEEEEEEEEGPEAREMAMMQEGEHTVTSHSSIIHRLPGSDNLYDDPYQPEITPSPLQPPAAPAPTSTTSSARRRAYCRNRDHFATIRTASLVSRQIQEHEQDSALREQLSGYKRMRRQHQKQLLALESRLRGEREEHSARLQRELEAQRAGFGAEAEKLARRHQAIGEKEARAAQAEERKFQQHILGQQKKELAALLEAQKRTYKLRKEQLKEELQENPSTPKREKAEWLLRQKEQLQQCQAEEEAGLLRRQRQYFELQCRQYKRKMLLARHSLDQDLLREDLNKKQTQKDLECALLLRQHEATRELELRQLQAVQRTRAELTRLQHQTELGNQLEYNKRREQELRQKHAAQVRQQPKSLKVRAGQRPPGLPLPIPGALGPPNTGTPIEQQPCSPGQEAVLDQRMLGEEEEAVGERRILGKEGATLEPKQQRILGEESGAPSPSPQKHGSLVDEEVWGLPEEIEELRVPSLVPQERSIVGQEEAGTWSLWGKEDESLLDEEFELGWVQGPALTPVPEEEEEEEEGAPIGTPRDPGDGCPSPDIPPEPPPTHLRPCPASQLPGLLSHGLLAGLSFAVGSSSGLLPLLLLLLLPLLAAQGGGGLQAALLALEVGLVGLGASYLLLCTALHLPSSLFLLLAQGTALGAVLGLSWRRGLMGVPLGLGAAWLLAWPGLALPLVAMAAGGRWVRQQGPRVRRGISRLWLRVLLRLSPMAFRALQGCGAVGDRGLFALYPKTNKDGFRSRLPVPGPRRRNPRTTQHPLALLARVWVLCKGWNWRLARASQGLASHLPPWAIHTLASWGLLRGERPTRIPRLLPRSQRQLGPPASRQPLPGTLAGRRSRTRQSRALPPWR
Method: as §1

CDK13 = target: T6, CDK13 (Homo sapiens, UniProt Q14004)
T6 construct: endogenous in cells; host or cells: K562
Method: as §1

PTK2 = target: T7, PTK2 (Homo sapiens, UniProt Q05397)
T7 construct: endogenous in cells; host or cells: K562
Method: as §1

LRRK2 = target: T8, LRRK2 (Homo sapiens, UniProt Q5S007);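 as to 0.001 uM KAM: median log10 fold change of treatment over DMSO control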;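 as to 0.01 uM KAM: median log10 fold change of treatment over DMSO control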;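 as to 0.1 uM KAM: median log10 fold change of treatment over DMSO control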;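 as to 1 uM KAM: median log10 fold change of treatment over DMSO control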;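 as to 10 uM KAM: median log10 fold change of treatment over DMSO control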
T8 construct: endogenous in cells; host or cells: K562
Method: as §1

BCR = target: T9, BCR (Homo sapiens, UniProt P00519+P11274)
T9 construct: ABL1 (fusion partner in BCR-ABL); endogenous in cells; host or cells: K562 lysate
Method: as §1

[1] = KAM 0.001-10 uM, read-out: RB50 (the source's name)
[2] = read-out: RB50 (the source's name)

N#CCc1ccc(Nc2nc(NCCCN)cc(Nc3cc(C4CC4)[nH]n3)n2)cc1 [KAM]
IC50 (TP53RK; [1]): > 10 µM | 0.001 uM KAM (TP53RK; relative to 0 uM KAM = 0): 0.009964 | 0.01 uM KAM (TP53RK; relative to 0 uM KAM = 0): 0.004194 | 0.1 uM KAM (TP53RK; relative to 0 uM KAM = 0): 0.08221 | 1 uM KAM (TP53RK; relative to 0 uM KAM = 0): 0.04146 | 10 uM KAM (TP53RK; relative to 0 uM KAM = 0): -0.01189 | median Log10 fold change (CDK10; 0.001 uM KAM): 0.01311 | median Log10 fold change (CDK10; 0.01 uM KAM): -0.05132 | median Log10 fold change (CDK10; 0.1 uM KAM): -0.3516 | median Log10 fold change (CDK10; 1 uM KAM): -0.4253 | median Log10 fold change (CDK10; 10 uM KAM): -0.3533 | IC50 (CDK10; [2]): 130 nM | median Log10 fold change (CSNK2A2; 0.001 uM KAM): 0.0115 | median Log10 fold change (CSNK2A2; 0.01 uM KAM): -0.003085 | median Log10 fold change (CSNK2A2; 0.1 uM KAM): -0.2921 | median Log10 fold change (CSNK2A2; 1 uM KAM): -0.5833 | median Log10 fold change (CSNK2A2; 10 uM KAM): -0.635 | IC50 (CSNK2A2; [2]): 150 nM | median Log10 fold change (SYK; 0.001 uM KAM): -0.04062 | median Log10 fold change (SYK; 0.01 uM KAM): -0.03667 | median Log10 fold change (SYK; 0.1 uM KAM): -0.2061 | median Log10 fold change (SYK; 1 uM KAM): -0.3555 | median Log10 fold change (SYK; 10 uM KAM): -0.3656 | IC50 (SYK; [2]): 714 nM | IC50 (TAOK2; [1]): 6.63 µM | 0.001 uM KAM (TAOK2; relative to 0 uM KAM = 0): -0.0603 | 0.01 uM KAM (TAOK2; relative to 0 uM KAM = 0): -0.04102 | 0.1 uM KAM (TAOK2; relative to 0 uM KAM = 0): -0.1359 | 1 uM KAM (TAOK2; relative to 0 uM KAM = 0): -0.1664 | 10 uM KAM (TAOK2; relative to 0 uM KAM = 0): -0.2974 | median Log10 fold change (CDK13; 0.001 uM KAM): -0.01353 | median Log10 fold change (CDK13; 0.01 uM KAM): -0.006338 | median Log10 fold change (CDK13; 0.1 uM KAM): -0.0866 | median Log10 fold change (CDK13; 1 uM KAM): -0.2891 | median Log10 fold change (CDK13; 10 uM KAM): -0.4319 | IC50 (CDK13; [2]): 1480 nM | median Log10 fold change (PTK2; 0.001 uM KAM): 0.001005 | median Log10 fold change (PTK2; 0.01 uM KAM): -0.00785 | median Log10 fold change (PTK2; 0.1 uM KAM): -0.1794 | median Log10 fold change (PTK2; 1 uM KAM): -0.5062 | median Log10 fold change (PTK2; 10 uM KAM): -0.5675 | IC50 (PTK2; [2]): 335 nM | IC50 (LRRK2; [1]): > 10 µM | 0.001 uM KAM (LRRK2; relative to 0 uM KAM = 0): -0.05098 | 0.01 uM KAM (LRRK2; relative to 0 uM KAM = 0): -0.01752 | 0.1 uM KAM (LRRK2; relative to 0 uM KAM = 0): 0.02155 | 1 uM KAM (LRRK2; relative to 0 uM KAM = 0): 0.06199 | 10 uM KAM (LRRK2; relative to 0 uM KAM = 0): -0.09009 | median Log10 fold change (BCR; 0.001 uM KAM): -0.02555 | median Log10 fold change (BCR; 0.01 uM KAM): -0.005343 | median Log10 fold change (BCR; 0.1 uM KAM): -0.1851 | median Log10 fold change (BCR; 1 uM KAM): -0.427 | median Log10 fold change (BCR; 10 uM KAM): -0.5622
